In patent US10702528B2, “Hepatitis B antiviral agents” (Enanta Pharmaceuticals, Inc., priority 2015, dated 2020) one finds EC50 and CC50 data, which are given here for 25 compounds.

pEC50: −log10 of the molar value.

The subject of one data set is HBV. Nature of the data set: HepAD38 antiviral screen: reduction of viral product accumulation (virion DNA by qPCR; HBsAg/HBeAg ELISA). The class given is cell-based. As to conditions: Hepatitis B virus, 120 h; HepAD38 cells, harvest five days after compound addition; reduction of viral product accumulation relative to no drug controls; read-out: HepAD38 EC50. As to the method: (§1) Methods: HepAD38 cells are maintained as previously reported (Ladner et al, Antimicrob. Agents Chemother. 1997, […], 1715). Briefly, cells are passaged upon attaining confluency in DMEM/F12 media in the presence of 10% FBS, Penn/Strep, 250 μg/mL G418, and 1 μg/ml tetracycline. Novel compounds are screened by first washing cells three times with PBS to remove tetracycline, and plating in 96 well plates at 35,000 cells/well. Compounds dissolved in DMSO are then diluted 1:200 into wells containing cells. Five days after compound addition, material is harvested for analysis. For an extended 8 day analysis, cells are plated and treated as described above, but media and compound are refreshed on d2 and d5 post initial treatment.
On harvest day, virion DNA is obtained by lysing with Sidestep Lysis and Stabilization Buffer and then quantified via quantitative real time PCR. Commercially available ELISA kits are used to quantitate the viral proteins HBsAg (Alpco) or HbeAg (US Biological) by following the manufacturer's recommended protocol after diluting samples to match the linear range of their respective assays. Irrespective of readout, compound concentrations that reduce viral product accumulation in the cell lysates or supernatants by relative to no drug controls (EC50) are reported; EC50 ranges are as follows: A<1 μM; B 1-10 μM; C>10 μM.

A short description of data set [1]: Compound toxicity by ATPlite 1 Step (total ATP levels) in HepAD38 cells. The class given is cell-based. The conditions noted are these: human, day of harvest, concentration reducing total ATP levels by 50% relative to no drug controls. As for the experimental part: as §1
Additionally, on day of harvest, compound toxicity is evaluated by treating cells with ATPlite 1 Step according to the manufacturer's protocol. Compound concentrations that reduce total ATP levels in wells by 50% relative to no drug controls (CC50) are reported; CC50 ranges are as follows: A>30 μM; B 10-30 μM; C<10 μM.

`C=CCOC(=O)C1=CNC(c2nccs2)=NC1(C)c1ccc(F)cc1` (stereo not shown) [Example 51]: the pEC50 with HBV is 5.00 to 6.00.

Compound `Cn1ccc(C2=C(CC(=O)O)NC(c3nccs3)=NC2c2ccc(F)cc2Cl)n1` (stereo not shown) [Example 46] returned a CC50 in data set [1] of 10 to 30 µM. Besides, in the data set on HBV, the negative logarithm of the EC50 (pEC50) is less than 5.00.

`COCC1=C(c2ccn(C)n2)C(c2ccc(F)cc2Cl)N=C(c2nccs2)N1` (stereo not shown) [Example 35] returned a CC50 in data set [1] of more than 30 µM. Further, the negative-log EC50 (pEC50) with HBV is more than 6.00.

Regarding `CCOC(=O)C1=CNC(c2nccs2)=NC1(C)c1ccc(F)cc1Cl` (stereo not shown) [Example 57], in the data set on HBV, the pEC50 is 5.00 to 6.00.

Compound `CCOC(=O)C1=C(CC2CCC[C@H]2C(=O)O)NC(c2nccs2)=NC1C1CCCCC1` (stereo partly shown) [Example 6] came in with a 50% cytotoxic concentration (CC50) in data set [1] of more than 30 µM. For the same compound, the pEC50 in the data set with HBV is less than 5.00.

`COC(=O)/C=C1\NC(c2nccs2)=NC(c2ccc(F)cc2Cl)C1c1ccn(C)n1` (stereo not shown) [Example 45] returned a CC50 in data set [1] of 10 to 30 µM. Also, the pEC50 in the data set on HBV is 5.00 to 6.00.

In data set [1], `CC1=C(CN(C)C)C(c2ccc(F)cc2Cl)N=C(c2nccs2)N1` (racemic) [Example 8] returned a CC50 of more than 30 µM. The pEC50 in the data set with HBV is less than 5.00.

In data set [1], `CC1=C(c2nccs2)C(c2ccc(F)cc2Cl)N=C(c2nccs2)N1` (racemic) [Example 14] displayed a CC50 of more than 30 µM. Moreover, the pEC50 in the data set on HBV is more than 6.00.

For `COC(=O)[C@@H]1CCC[C@H]1N1C[C@@H]2CN(CC3=C(c4ccn(C)n4)[C@H](c4ccc(F)cc4Cl)N=C(c4nccs4)N3)CCN2C1=O` [Example 55], in the data set with HBV, the pEC50 was 5.00 to 6.00.

In data set [1], `Cn1ccc(C2=C(CN3CC(F)(F)C[C@H]3C(=O)O)NC(c3nccs3)=NC2c2ccc(F)cc2Cl)n1` (stereo partly shown) [Example 38] yielded a CC50 of more than 30 µM. Further, the pEC50 in the data set on HBV is more than 6.00.

`CCOC(=O)C1=C(CC2CC(F)(F)C[C@H]2C(=O)O)NC(c2nccs2)=NC1C1CCCC1` (stereo partly shown) [Example 7] yielded a CC50 in data set [1] of more than 30 µM. The negative-log EC50 (pEC50) in the data set with HBV is 5.00 to 6.00.

Take `Cn1ccc(C2=C(CN3C4CCC3COC4)NC(c3nccs3)=N[C@H]2c2ccc(F)cc2Cl)n1` [Example 52]: the pEC50 with HBV was more than 6.00.

In the case of `Cn1ccc(C2=C(CO)NC(c3nccs3)=NC2c2ccc(F)cc2Cl)n1` (stereo not shown) [Example 41], in data set [1], the CC50 was 10 to 30 µM. In the data set on HBV, the negative logarithm of the EC50 (pEC50) is more than 6.00.

In the case of `COC(=O)CC1=C(c2ccn(C)n2)C(c2ccc(F)cc2Cl)N=C(c2nccs2)N1` (stereo not shown) [Example 44], the CC50 in data set [1] was more than 30 µM. Moreover, the pEC50 with HBV is 5.00 to 6.00.

As for `CCn1ccc(C2=C(C)NC(c3nccs3)=NC2c2ccc(F)cc2Cl)n1` (stereo not shown) [Example 34], the CC50 in data set [1] is more than 30 µM. Moreover, in the data set with HBV, the pEC50 is more than 6.00.

The compound `CC1=C(S(C)(=O)=O)C(c2ccc(F)cc2Cl)N=C(c2nccs2)N1` (racemic) [Example 25] returned a CC50 in data set [1] of more than 30 µM. The pEC50 in the data set on HBV is less than 5.00.

`CC(=O)C1=C(C)NC(c2nccs2)=NC1c1ccc(F)cc1Cl` (racemic) [Example 11] gave a CC50 in data set [1] of more than 30 µM. The pEC50 in the data set with HBV is more than 6.00.

In data set [1], `C=CC1=C(C)NC(c2nccs2)=NC1c1ccc(F)cc1Cl` (racemic) [Example 12] had a CC50 of more than 30 µM. For the same compound, the pEC50 in the data set on HBV was more than 6.00.

On to `CCOC(=O)C1=C(C)NC(N2CCCC2=O)=NC1c1ccc(F)cc1Cl` (stereo not shown) [Example 29], for which the CC50 in data set [1] was more than 30 µM. In addition, the pEC50 in the data set on HBV was less than 5.00.

For `Cn1ccc(C2=C(CN3CCOCC3)NC(c3nccs3)=N[C@H]2c2ccc(F)cc2Cl)n1` [Example 53], the pEC50 with HBV was more than 6.00.

Turning to `Cn1ccc(C2=C(CN3C4CCC3CC(O)C4)NC(c3nccs3)=N[C@H]2c2ccc(F)cc2Cl)n1` (stereo partly shown) [Example 54], the pEC50 in the data set on HBV was 5.00 to 6.00.

On to `CC1=C(c2ncco2)C(C)(c2ccc(F)cc2Cl)N=C(c2nccs2)N1` (stereo not shown) [Example 47], for which the pEC50 in the data set with HBV was less than 5.00.

For the compound `Cn1ccc(C2=CNC(c3nccs3)=NC2(C)c2ccc(F)cc2)n1` (stereo not shown) [Example 50], the pEC50 with HBV is 5.00 to 6.00.

As to `CC1=C(c2ccn(C)n2)C(C)(c2ccc(F)cc2Cl)N=C(c2nccs2)N1` (stereo not shown) [Example 48], the pEC50 with HBV was less than 5.00.

As for `CCOC(=O)C1=CNC(c2nccs2)=NC1(C)c1ccc(F)cc1` (stereo not shown) [Example 49], the pEC50 in the data set on HBV was 5.00 to 6.00.
